Experimental data published in patent US9018258B2, “Substituted 1-benzylcycloalkylcarboxylic acids and the use thereof” (Bayer Intellectual Property GmbH, priority 2010, dated 2015).

Assays:
Assay type in all cases: cell-based
sGC = target: T1, sGC (Rattus norvegicus, UniProt P20595); assay: Action at a recombinant guanylate cyclase reporter cell line (CHO reporter cell); conditions: CHO reporter cell in vitro
T1 construct: expressed in transfected cells; host or cells: CHO reporter cell
Description: The cellular action of the compounds according to the invention is determined at a recombinant guanylate cyclase reporter cell line, as described in F. Wunder et al., Anal. Biochem. 339, 104-112 (2005).

GAL4-PPARα = target: T2, GAL4-PPARα (Homo sapiens, UniProt Q07869); assay: Cellular PPAR transactivation assay, GAL4-PPARα chimera in CHO-K1 cells; conditions: for Emax: CHO-K1, maximum effect relative to reference compound (Example 73 of EP 1 452 521-A1 = 100%), read-out: PPARα efficacy; for EC50: CHO-K1 cells, luciferase reporter, 6 h stimulation
T2 construct: expressed in transfected cells
T2 sequence (Q07869 167-468): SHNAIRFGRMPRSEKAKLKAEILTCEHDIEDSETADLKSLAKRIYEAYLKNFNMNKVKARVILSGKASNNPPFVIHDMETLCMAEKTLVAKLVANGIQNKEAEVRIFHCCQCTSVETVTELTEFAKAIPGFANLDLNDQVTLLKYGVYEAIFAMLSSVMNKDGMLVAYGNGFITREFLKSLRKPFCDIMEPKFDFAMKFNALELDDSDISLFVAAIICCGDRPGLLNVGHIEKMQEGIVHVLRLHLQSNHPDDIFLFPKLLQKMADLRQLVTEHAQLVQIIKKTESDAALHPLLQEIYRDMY
Description: (§1) A cellular assay is used to test for potentially activating properties of the compounds according to the invention with respect to the three human isoforms of the peroxisome proliferator-activated receptors (PPARα, PPARγ and PPARδ).
(§2) Since mammalian cells contain different endogenous nuclear receptors which may complicate an unambiguous interpretation of the results, an established chimera system is used in which the respective ligand binding domain of the human PPAR isoforms is fused to the DNA binding domain of the yeast transcription factor GAL4. The resulting GAL4-PPARα, γ and δ chimeras are co-transfected and stably expressed in CHO cells having a reporter construct.
(§3) The GAL4-PPAR expression constructs contain the ligand binding domain of PPARα (amino acids 167-468), PPARγ (amino acids 203-506) and PPARδ (amino acids 138-442) which are PCR-amplified and cloned into the vector pcDNA3.1. The respective expression vectors already contain the GAL4 DNA binding domain (amino acids 1-147) of the vector pFC2-dbd (Stratagene). The reporter construct, which contains five copies of the GAL4 binding site upstream of a thymidine kinase promoter, expresses firefly luciferase (Photinus pyralis) following activation and binding of GAL4-PPARα, γ or δ.
(§4) The day before the test, CHO-K1 cells (chinese hamster ovary; ATCC CCL-61) each stably expressing one of the above-described GAL4-PPAR chimeras and the luciferase reporter gene construct are sown in medium [Optimem (GIBCO) with 2% activated carbon-purified foetal calf serum (Hyclone), 1.35 mM sodium pyruvate (GIBCO) and 0.2% sodium bicarbonate (GIBCO)] in a density of 1×10^3 cells in 96-well microtitre plates (Greiner) and kept in a cell incubator (96% atmospheric humidity, 5% v/v CO2, 37° C.). On the test day, the substances to be tested are taken up in the medium mentioned above, but without addition of calf serum, and added in various concentrations to the cells. After a stimulation period of 6 h, the luciferase activity is measured using a video camera. The relative light units measured give, as a function of the substance concentration, a sigmoidal stimulation curve. The EC50 values are calculated using the computer programme GraphPad PRISM (Version 3.02). The maximum effect of a test substance in the respective PPAR assay is determined as efficacy in percent in comparison to an appropriate reference compound whose maximum effect is defined as 100%.
(§5) The reference compound selected here was the compound 2-(3-{[(2-chloro-4-propoxybenzoyl)-amino]methyl}-4-ethoxybenzyl)tetrahydrofuran-2-carboxylic acid [Example 73 of EP 1 452 521-A1] which is described in the prior art as a potent pan-PPAR agonist.

GAL4-PPARγ = target: T3, GAL4-PPARγ (Homo sapiens, UniProt P37231); assay: Cellular PPAR transactivation assay, GAL4-PPARγ chimera in CHO-K1 cells; conditions: for Emax: CHO-K1, maximum effect relative to reference compound (Example 73 of EP 1 452 521-A1 = 100%), read-out: PPARγ efficacy; for EC50: CHO-K1 cells, luciferase reporter, 6 h stimulation
T3 construct: PPARγ (amino acids 203-506); expressed in transfected cells
T3 sequence (P37231 203-505 limits assumed): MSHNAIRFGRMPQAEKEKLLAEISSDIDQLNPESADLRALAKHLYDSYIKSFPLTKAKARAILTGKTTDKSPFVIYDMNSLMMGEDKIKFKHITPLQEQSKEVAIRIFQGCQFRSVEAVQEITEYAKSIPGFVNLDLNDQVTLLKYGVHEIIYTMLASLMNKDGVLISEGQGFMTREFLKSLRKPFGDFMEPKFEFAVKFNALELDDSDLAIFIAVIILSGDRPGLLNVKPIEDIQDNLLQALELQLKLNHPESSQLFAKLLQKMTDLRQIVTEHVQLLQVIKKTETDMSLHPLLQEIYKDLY
Description: as §1, §2, §3, §4, §5

GAL4-PPARδ = target: T4, GAL4-PPARδ (Homo sapiens, UniProt Q03181); assay: Cellular PPAR transactivation assay, GAL4-PPARδ chimera in CHO-K1 cells; conditions: for Emax: CHO-K1, maximum effect relative to reference compound (Example 73 of EP 1 452 521-A1 = 100%), read-out: PPARδ efficacy; for EC50: CHO-K1 cells, luciferase reporter, 6 h stimulation
T4 construct: PPARδ (amino acids 138-442); expressed in transfected cells
T4 sequence (Q03181 138-441 limits assumed): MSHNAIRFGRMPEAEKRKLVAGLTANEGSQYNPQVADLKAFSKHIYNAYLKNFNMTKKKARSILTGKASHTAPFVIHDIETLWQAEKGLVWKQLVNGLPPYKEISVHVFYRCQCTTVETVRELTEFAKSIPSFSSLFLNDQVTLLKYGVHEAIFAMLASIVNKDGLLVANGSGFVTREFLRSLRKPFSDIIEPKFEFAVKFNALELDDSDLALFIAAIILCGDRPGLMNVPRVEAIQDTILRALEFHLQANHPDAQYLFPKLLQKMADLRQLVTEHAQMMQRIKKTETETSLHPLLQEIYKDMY
Description: as §1, §2, §3, §4, §5

T1 sequence (P19686 whole entry partner): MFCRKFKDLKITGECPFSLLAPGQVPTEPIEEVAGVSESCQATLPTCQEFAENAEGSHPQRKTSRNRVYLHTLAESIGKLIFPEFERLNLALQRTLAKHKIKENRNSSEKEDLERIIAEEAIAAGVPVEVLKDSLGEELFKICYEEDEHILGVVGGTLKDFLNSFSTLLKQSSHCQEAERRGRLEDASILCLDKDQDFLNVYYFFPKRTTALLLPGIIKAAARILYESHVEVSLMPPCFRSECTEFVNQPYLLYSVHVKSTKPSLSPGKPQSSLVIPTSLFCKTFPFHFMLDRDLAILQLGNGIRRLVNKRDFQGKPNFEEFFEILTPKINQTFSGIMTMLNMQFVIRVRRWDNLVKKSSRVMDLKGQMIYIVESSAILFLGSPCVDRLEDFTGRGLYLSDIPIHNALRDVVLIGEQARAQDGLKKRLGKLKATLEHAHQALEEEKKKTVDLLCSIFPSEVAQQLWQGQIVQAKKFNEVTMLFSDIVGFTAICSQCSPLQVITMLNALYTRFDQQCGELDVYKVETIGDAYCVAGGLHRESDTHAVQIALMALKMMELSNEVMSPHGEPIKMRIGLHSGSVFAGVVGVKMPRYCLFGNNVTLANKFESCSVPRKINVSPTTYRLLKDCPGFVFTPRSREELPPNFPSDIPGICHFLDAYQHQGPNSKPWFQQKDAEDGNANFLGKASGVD
T1 sequence (P20595 whole entry): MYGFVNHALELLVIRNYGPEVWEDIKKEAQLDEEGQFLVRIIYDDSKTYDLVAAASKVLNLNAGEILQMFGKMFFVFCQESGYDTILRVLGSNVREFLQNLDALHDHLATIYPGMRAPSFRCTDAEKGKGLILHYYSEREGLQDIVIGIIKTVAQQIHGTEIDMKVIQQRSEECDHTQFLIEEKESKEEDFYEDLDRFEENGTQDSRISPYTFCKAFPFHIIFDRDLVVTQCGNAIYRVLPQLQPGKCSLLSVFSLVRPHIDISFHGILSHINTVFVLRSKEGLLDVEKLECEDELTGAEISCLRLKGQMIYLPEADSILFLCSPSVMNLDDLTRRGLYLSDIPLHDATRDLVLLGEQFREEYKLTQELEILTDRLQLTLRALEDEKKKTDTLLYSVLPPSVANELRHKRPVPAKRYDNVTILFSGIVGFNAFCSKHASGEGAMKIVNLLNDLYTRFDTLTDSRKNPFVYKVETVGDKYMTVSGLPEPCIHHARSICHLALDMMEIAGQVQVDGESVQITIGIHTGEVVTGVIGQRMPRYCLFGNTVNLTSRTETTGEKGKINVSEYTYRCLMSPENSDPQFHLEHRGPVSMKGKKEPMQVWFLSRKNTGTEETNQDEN

## C[C@H]([C@H](C(=O)Nc1cc(CC2(C(=O)O)CC2(F)F)ccc1Cl)c1ccc(Cl)cc1)C(F)(F)F (single isomer, unassigned; (+)) [Example 71]
sGC
  MEC (minimum effective concentration), sGC-activating activity in the CHO reporter cell: 3 nM
GAL4-PPARα
  Emax: 0%
  EC50: > 10 µM
GAL4-PPARγ
  Emax: 20%
  EC50: 0.46 µM
GAL4-PPARδ
  Emax: 0%
  EC50: > 10 µM

## COc1ccc(CC2(C(=O)O)CC2)cc1CNC(=O)c1ccc(Cl)cc1Cl [Example 11 of EP 1 452 521-A1, 1-(3-{[(2,4-dichlorobenzoyl)amino]methyl}-4-methoxybenzyl)cyclopropanecarboxylic acid, reference compound]
GAL4-PPARα
  Emax: 0%
  EC50: > 1 µM
GAL4-PPARα; statement covers the PPARα, PPARγ and PPARδ test
  Effect in the cellular PPAR transactivation test (in words): virtually ineffective
GAL4-PPARγ
  Emax: 0%
  EC50: > 1 µM
GAL4-PPARδ
  Emax: 10%
  EC50: > 1 µM

## Cc1ccc(CC2(C(=O)O)CC2)cc1NC(=O)[C@H](c1ccc(Cl)cc1)[C@@H](C)C(F)(F)F [Example 33, 1-(3-{[(2S,3R)-2-(4-chlorophenyl)-4,4,4-trifluoro-3-methylbutanoyl]amino}-4-methylbenzyl)-cyclopropanecarboxylic acid]
sGC
  MEC (minimum effective concentration), sGC-activating activity in the CHO reporter cell: 3 nM
GAL4-PPARα
  Emax: 0%
  EC50: > 10 µM
GAL4-PPARγ
  Emax: 10%
  EC50: 4 µM
GAL4-PPARδ
  Emax: 0%
  EC50: > 10 µM

## C[C@H]([C@H](C(=O)Nc1cc(CC2(C(=O)O)CC2)ccc1F)c1ccc(C(C)(F)F)cc1)C(F)(F)F [Example 38, 1-[3-({(2S,3R)-2-[4-(1,1-difluoroethyl)phenyl]-4,4,4-trifluoro-3-methylbutanoyl}amino)-4-fluorobenzyl]cyclopropanecarboxylic acid]
sGC
  MEC (minimum effective concentration), sGC-activating activity in the CHO reporter cell: 0.3 nM
GAL4-PPARα
  Emax: 0%
  EC50: > 10 µM
GAL4-PPARγ
  Emax: 0%
  EC50: > 10 µM
GAL4-PPARδ
  Emax: 0%
  EC50: > 10 µM

## C[C@H]([C@H](C(=O)Nc1cc(CC2(C(=O)O)CC2)ccc1F)c1ccc(C2CC2)cc1)C(F)(F)F [Example 40, 1-(3-{[(2S,3R)-2-(4-cyclopropylphenyl)-4,4,4-trifluoro-3-methylbutanoyl]amino}-4-fluorobenzyl)cyclopropanecarboxylic acid]
sGC
  MEC (minimum effective concentration), sGC-activating activity in the CHO reporter cell: 0.3 nM
GAL4-PPARα
  Emax: 0%
  EC50: > 10 µM
GAL4-PPARγ
  Emax: 10%
  EC50: 0.12 µM
GAL4-PPARδ
  Emax: 0%
  EC50: > 10 µM

## COc1cc([C@@H](C(=O)Nc2cc(CC3(C(=O)O)CC3)ccc2F)[C@@H](C)C(F)(F)F)ccc1Cl [Example 42, 1-(3-{[(2S,3R)-2-(4-chloro-3-methoxyphenyl)-4,4,4-trifluoro-3-methylbutanoyl]amino}-4-fluorobenzyl)cyclopropanecarboxylic acid]
sGC
  MEC (minimum effective concentration), sGC-activating activity in the CHO reporter cell: 3 nM
GAL4-PPARα
  Emax: 0%
  EC50: > 10 µM
GAL4-PPARγ
  Emax: 10%
  EC50: 2 µM
GAL4-PPARδ
  Emax: 0%
  EC50: > 10 µM

## C[C@H]([C@H](C(=O)Nc1c(Cl)ccc(CC2(C(=O)O)CC2)c1F)c1ccc(Cl)cc1)C(F)(F)F [Example 52, 1-(4-Chloro-3-{[(2S,3R)-2-(4-chlorophenyl)-4,4,4-trifluoro-3-methylbutanoyl]amino}-2-fluorobenzyl)cyclopropanecarboxylic acid]
sGC
  MEC (minimum effective concentration), sGC-activating activity in the CHO reporter cell: 10 nM

## C=Cc1ccc([C@@H](C(=O)Nc2cc(CC3(C(=O)O)CC3)ccc2F)[C@@H](C)C(F)(F)F)cc1 [Example 63, (+)-1-(4-Fluoro-3-{[(2S,3R)-4,4,4-trifluoro-3-methyl-2-(4-vinylphenyl)butanoyl]amino}benzyl)-cyclopropanecarboxylic acid]
sGC
  MEC (minimum effective concentration), sGC-activating activity in the CHO reporter cell: 0.3 nM

## C[C@H]([C@H](C(=O)Nc1cc(CC2(C(=O)O)CC2(F)F)ccc1Cl)c1ccc(Cl)cc1)C(F)(F)F (stereo partly drawn) [Example 69, 1-(4-Chloro-3-{[(2S,3R)-2-(4-chlorophenyl)-4,4,4-trifluoro-3-methylbutanoyl]amino}benzyl)-2,2-difluorocyclopropanecarboxylic acid]
sGC
  MEC (minimum effective concentration), sGC-activating activity in the CHO reporter cell: 3 nM

## CCCOc1ccc(C(=O)NCc2cc(CC3(C(=O)O)CCCO3)ccc2OCC)c(Cl)c1 (stereo not drawn) [Example 73 of EP 1 452 521-A1, 2-(3-{[(2-chloro-4-propoxybenzoyl)amino]-methyl}-4-ethoxybenzyl)tetrahydrofuran-2-carboxylic acid, reference compound]
GAL4-PPARα
  Emax: 100%
  EC50: 0.0053 µM
GAL4-PPARγ
  Emax: 100%
  EC50: 0.0089 µM
GAL4-PPARδ
  Emax: 100%
  EC50: 0.0084 µM

## C[C@H]([C@H](C(=O)Nc1cc(CC2(C(=O)O)CC2)ccc1C1CC1)c1ccc(Cl)cc1)C(F)(F)F [Example 97, 1-(3-{[(2S,3R)-2-(4-chlorophenyl)-4,4,4-trifluoro-3-methylbutanoyl]amino}-4-cyclopropyl-benzyl)cyclopropanecarboxylic acid]
sGC
  MEC (minimum effective concentration), sGC-activating activity in the CHO reporter cell: 10 nM

## CCC(c1ccc(Cl)c(NC(=O)[C@H](c2ccc(Cl)cc2)[C@@H](C)C(F)(F)F)c1)C1(C(=O)O)CC1 (stereo partly drawn) [Example 98, 1-[1-(4-Chloro-3-{[(2S,3R)-2-(4-chlorophenyl)-4,4,4-trifluoro-3-methylbutanoyl]amino}phenyl)-propyl]cyclopropanecarboxylic acid]
sGC
  MEC (minimum effective concentration), sGC-activating activity in the CHO reporter cell: 0.3 nM

## C[C@H]([C@H](C(=O)Nc1cc(C(C)(O)C2(C(=O)O)CC2)ccc1Cl)c1ccc(Cl)cc1)C(F)(F)F (stereo partly drawn) [Example 111, 1-[1-(4-chloro-3-{[(2S,3R)-2-(4-chlorophenyl)-4,4,4-trifluoro-3-methylbutanoyl]amino}phenyl)-1-hydroxyethyl]cyclopropanecarboxylic acid]
sGC
  MEC (minimum effective concentration), sGC-activating activity in the CHO reporter cell: 30 nM
